Assay results as given in article PMC8222254, “Self-assembly of an anion receptor with metal-dependent kinase inhibition and potent in vitro anti-cancer properties” (Nature Communications, 2021).
Several values for one entry are separate records, joined by “and”; a condition that tells them apart may be missing. Equal values may be shown once.

Columns and labels:
Test in all cases: Kinase inhibition screen, cell-free 33P ATP assay at 10 μM
Type in all cases: biochemical
[1] = biological target: T1, 140 purified human kinases (Homo sapiens, UniProt Q96L34)
T1 sequence (Q96L34 1-752): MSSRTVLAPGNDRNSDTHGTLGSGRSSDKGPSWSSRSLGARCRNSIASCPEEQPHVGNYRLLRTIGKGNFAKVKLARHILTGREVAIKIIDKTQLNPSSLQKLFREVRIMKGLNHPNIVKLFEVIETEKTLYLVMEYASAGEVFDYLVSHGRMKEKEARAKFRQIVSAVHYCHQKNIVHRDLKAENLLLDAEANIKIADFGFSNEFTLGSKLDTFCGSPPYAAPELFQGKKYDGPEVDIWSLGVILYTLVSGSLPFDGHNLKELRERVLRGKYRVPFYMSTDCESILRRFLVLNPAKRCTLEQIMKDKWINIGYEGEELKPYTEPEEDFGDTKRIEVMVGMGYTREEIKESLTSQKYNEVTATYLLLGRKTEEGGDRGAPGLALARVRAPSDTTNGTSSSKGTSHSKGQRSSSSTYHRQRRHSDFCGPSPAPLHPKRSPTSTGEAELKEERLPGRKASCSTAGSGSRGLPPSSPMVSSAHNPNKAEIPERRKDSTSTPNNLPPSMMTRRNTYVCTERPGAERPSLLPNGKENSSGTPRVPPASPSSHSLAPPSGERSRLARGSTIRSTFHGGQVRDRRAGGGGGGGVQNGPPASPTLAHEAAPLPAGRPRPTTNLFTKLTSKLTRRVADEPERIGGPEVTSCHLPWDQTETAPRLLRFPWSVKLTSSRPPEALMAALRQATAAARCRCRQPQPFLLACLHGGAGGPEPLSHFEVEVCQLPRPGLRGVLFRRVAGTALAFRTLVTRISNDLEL
Method in brief: (§1)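 Radiometric ^33P ATP cell-free format with purified enzymes; both complexes run at 10 μM in duplicate, results plotted on a kinome map via HGNC symbols.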

[2] = biological target: T2, 140 purified human kinases (Homo sapiens, UniProt P36897)
T2 sequence (P36897 34-503): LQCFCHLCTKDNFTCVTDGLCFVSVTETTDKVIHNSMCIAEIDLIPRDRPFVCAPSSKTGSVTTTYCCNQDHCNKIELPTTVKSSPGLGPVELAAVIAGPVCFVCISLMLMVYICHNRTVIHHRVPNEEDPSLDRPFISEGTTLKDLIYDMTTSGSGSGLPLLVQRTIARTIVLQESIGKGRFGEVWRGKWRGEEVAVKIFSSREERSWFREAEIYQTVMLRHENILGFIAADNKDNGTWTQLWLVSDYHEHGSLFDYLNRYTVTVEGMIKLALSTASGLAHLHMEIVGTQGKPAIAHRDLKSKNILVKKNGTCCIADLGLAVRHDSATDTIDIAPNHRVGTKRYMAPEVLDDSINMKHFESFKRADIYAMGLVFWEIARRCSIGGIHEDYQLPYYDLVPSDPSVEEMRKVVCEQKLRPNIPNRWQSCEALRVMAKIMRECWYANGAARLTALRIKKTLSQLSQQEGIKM
Method in brief: as §1

[3] = biological target: T3, 140 purified human kinases (Homo sapiens, UniProt Q8IWQ3)
T3 sequence (Q8IWQ3 1-736): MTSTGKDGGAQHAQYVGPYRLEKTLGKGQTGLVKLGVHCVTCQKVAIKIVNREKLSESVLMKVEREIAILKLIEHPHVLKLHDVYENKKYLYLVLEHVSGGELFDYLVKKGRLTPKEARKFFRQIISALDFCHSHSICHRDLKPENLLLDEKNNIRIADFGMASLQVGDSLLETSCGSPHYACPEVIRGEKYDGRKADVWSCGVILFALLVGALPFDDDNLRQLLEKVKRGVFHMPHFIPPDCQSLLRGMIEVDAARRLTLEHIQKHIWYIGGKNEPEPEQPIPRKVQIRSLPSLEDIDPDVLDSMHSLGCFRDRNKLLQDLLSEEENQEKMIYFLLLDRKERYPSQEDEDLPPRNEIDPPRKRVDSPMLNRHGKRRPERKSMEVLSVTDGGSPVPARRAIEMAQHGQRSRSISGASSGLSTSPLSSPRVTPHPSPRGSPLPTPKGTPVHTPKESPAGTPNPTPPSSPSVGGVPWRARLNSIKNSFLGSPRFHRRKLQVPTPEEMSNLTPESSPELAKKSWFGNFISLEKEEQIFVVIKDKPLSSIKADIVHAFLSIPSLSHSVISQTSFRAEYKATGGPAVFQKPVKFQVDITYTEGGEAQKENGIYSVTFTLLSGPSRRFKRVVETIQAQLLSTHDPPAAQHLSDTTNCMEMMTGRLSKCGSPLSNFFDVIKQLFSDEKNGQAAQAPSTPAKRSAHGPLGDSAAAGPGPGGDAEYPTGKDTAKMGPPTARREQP
Method in brief: as §1

In the case of [Cu+2].[Cu+2].[Cu+2].c1ccc(-c2csc(NCCN(CCNc3nc(-c4ccccn4)cs3)CCNc3nc(-c4ccccn4)cs3)n2)nc1.c1ccc(-c2csc(NCCN(CCNc3nc(-c4ccccn4)cs3)CCNc3nc(-c4ccccn4)cs3)n2)nc1 [[L2Cu3]6+], the “% Inhibition Run 1” value ([1]; MARK4) was 52.1%, the “% Inhibition Run 2” value ([1]; MARK4) was 52.2% and the “% Inhibition, Mean” value ([1]; MARK4) was 52%. The mean % activity ([1]; MARK4) was 48%, the “% activity” value ([1]; MARK4, Run 1) was 47.9% and the “% activity” value ([1]; MARK4, Run 2) was 47.8%. For the same compound, the “% Activation, Mean value” ([2]; TGFBR1) was 30%, the “% Inhibition Run 1” value ([2]; TGFBR1) was -44.2% and the “% Inhibition Run 2” value ([2]; TGFBR1) was -16.7%. The “% Inhibition, Mean” value ([2]; TGFBR1) was -30%, the mean % activity ([2]; TGFBR1) was 130% and the “% activity” value ([2]; TGFBR1, Run 1) was 144.2%. The “% activity” value ([2]; TGFBR1, Run 2) was 116.7%, the “% Activity Run 1” value ([2]; TGFBR1, 10 µM) was 144.20% and the “% Activity Run 2” value ([2]; TGFBR1, 10 µM) was 116.70%. For the same compound, the “% Inhibition Run 1” value ([3]; BRSK2) was 77.8%, the “% Inhibition Run 2” value ([3]; BRSK2) was 75.3% and the “% Inhibition, Mean” value ([3]; BRSK2) was 77%. For the same compound, the mean % activity ([3]; BRSK2) was 23%, the “% activity” value ([3]; BRSK2, Run 1) was 22.2% and the “% activity” value ([3]; BRSK2, Run 2) was 24.7%.

With CC(=O)[O-].CC(=O)[O-].CC(=O)[O-].CC(=O)[O-].CC(=O)[O-].CC(=O)[O-].[Zn+2].[Zn+2].[Zn+2].c1ccc(-c2csc(NCCN(CCNc3nc(-c4ccccn4)cs3)CCNc3nc(-c4ccccn4)cs3)n2)nc1.c1ccc(-c2csc(NCCN(CCNc3nc(-c4ccccn4)cs3)CCNc3nc(-c4ccccn4)cs3)n2)nc1 [[L2Zn3]6+] the “% Inhibition, Mean” value ([1]; MARK4) was 39%, the “% Inhibition, Run 1 / Run 2” value ([1]; MARK4) was 48% and 31% and the mean % activity ([1]; MARK4) was 61%. For the same compound, the “% activity” value ([1]; MARK4, duplicate runs) was 52% and 70%, the “% Inhibition, Mean” value ([2]; TGFBR1) was 41% and the “% Inhibition, Run 1 / Run 2” value ([2]; TGFBR1) was 35% and 48%. For the same compound, the mean % activity ([2]; TGFBR1) was 59%, the “% activity” value ([2]; TGFBR1, duplicate runs) was 65% and 53% and the “% Inhibition, Mean” value ([3]; BRSK2) was 37%. For the same compound, the “% Inhibition, Run 1 / Run 2” value ([3]; BRSK2) was 44% and 30%, the mean % activity ([3]; BRSK2) was 63% and the “% activity” value ([3]; BRSK2, duplicate runs) was 56% and 70%.
